Several values for one entry are separate records, joined by “and”; a condition that tells them apart may be missing. Identical values can stand only once.
Test system: H3K4me3 at known PRDM9 binding loci and control TSS loci
Assay: ChIP-qPCR of H3K4me3 in PRDM9-transfected HEK293T cells
Type: cell-based, human
Settings: for 2^-dCq / dCq (IP-Input) / 2^-dCq (H3K4me3 IP relative to H3 IP) / Cq / 2^-dCq (H3K4me3 ChIP relative to H3 ChIP) / 2^-dCq (H3K4me3 ChIP-qPCR, IP relative to H3) / <Cq>: Antibody H3K4me3; for 2^-dCq / dCq (IP-Input) / Cq / <Cq>: Figure 7 Replicate 2; for 2^-dCq (H3K4me3 IP relative to H3 IP): ChIP-qPCR Replicate 1; for Cq: ChIP-qPCR single well; for 2^-dCq (H3K4me3 ChIP relative to H3 ChIP): Replicate 1; for 2^-dCq (H3K4me3 ChIP-qPCR, IP relative to H3) / H3K4me3 ChIP-qPCR 2^-dCq (IP-Input): Replicate 2; for H3K4me3 ChIP-qPCR 2^-dCq (IP-Input): H3K4me3 antibody relative to H3; for <Cq>: mean of two wells
Procedure: ChIP-qPCR assays were then conducted on known PRDM9 binding loci[26]. Ectopic expression of PRDM9^WT increased trimethylation of H3K4 (H3K4me3) at previously described PRDM9-specific intragenic and intergenic regions[26] (Fig. 7; Supplementary Fig. 12). […] The observed increases in H3K4me3 levels at intragenic and intergenic regions are therefore due directly to PRDM9 PR domain-dependent methylation activity, rather than through recruitment of other H3K4 methyltransferases or other indirect mechanisms.
ChIP qPCR analyses of H3K4me3 methylation levels of known PRDM9-bound loci and control loci. […] Concentrations used (µM) are indicated below each plot. (a–d) represent reported loci of PRDM9 methylation; (e, f) are transcriptional start sites (TSSs) which are not known loci of PRDM9 methylation. Data are normalized to total H3 and are presented as the mean ± upper and lower limits from two replicates. Representative plots of two independent experiments are shown in this figure. The coordinates and the genomic features associated with the assayed loci are indicated above each plot. Left Tailed Student's t-tests were performed by comparing DMSO (0 µM) treated cells to compound treated cells that have been transfected with the same plasmids. *p-value < 0.05 and **p-value < 0.01. Note that here we show a representative of two independent experiments (mean ± s.d of technical replicates) for our ChIP-qPCR experiments. Data obtained using this technique are inherently noisy due to stochastic differences in gene activity/histone positioning. Data are thus typically presented as representative rather than averaged. Source data are provided as a Source Data file.
HEK293T cells were transfected with 37.5 μg empty pcDNA3.1(+) vector (Invitrogen), or the same vector expressing either wild-type PRDM9 (PRDM9^WT) or a catalytically dead PRDM9 mutant (PRDM9^Mut) and 75 μL of Lipofectamine 2000 (Invitrogen) in 6 mL of Opti-MEM (GIBCO) for 48 h. […] ChIP assays were then performed as previously described. Briefly, cells were fixed in 1% formaldehyde and the fixation reaction was quenched in a final concentration of 0.1 M glycine. Cell pellets were first lysed in LB1 (50 mM HEPES-KOH pH 7.5, 140 mM NaCl, 1 mM EDTA, 10% Glycerol, 0.5% Igepal, 0.25% TritonX), washed once in LB2 Buffer (10 mM Tris-HCl pH 8, 200 mM NaCl, 1 mM EDTA, 0.5 mM EGTA) and finally sonicated in LB3 buffer (10 mM Tris-HCl pH 8, 100 mM NaCl, 1 mM EDTA, 0.5 mM EGTA, 0.1% Sodium deoxycholate, 0.5% N-laurosylsarcosine) using a bioruptor (Diagenode). Thereafter, 50 μg of chromatin was subjected to ChIP using the following antibodies purchased from Abcam: α-H3K4me3 (1:200, ab8580, lot:GR3207339-1) and α-H3 (1:250, ab1791, lot:GR300978-4). After extensive washing in RIPA wash buffer (50 mM HEPES-KOH pH 7.6, 100 mM LiCl, 1 mM EDTA, 1% Igepal, 0.7% Sodium Deoxycholate), DNA was eluted from beads. The eluted DNA was treated with RNase A and Proteinase K and purified using the QIAGEN PCR purification kit. qPCR was then carried out targeting the indicated loci (Supplementary Table 3). Upper and lower limits were defined by |2^−(dCq±s) − 2^−(∆Cq)|, where s = √((Standard deviation of Input Cq)^2 + (Standard deviation of Target Cq)^2). […]
formation. ChIP qPCR analyses of H3K4me3 methylation levels at known PRDM9-bound and control loci. Cells transfected with empty vector (negative control) or vectors overexpressing either wild-type PRDM9 (PRDM9 WT) or catalytically dead PRDM9 (PRDM9 MUT) were […]
Panels a-d represent reported loci of […]
(1 picture or pasted object on this page, not shown here)
PRDM9 methylation; e-f are TSSs which are not known sites of PRDM9 methylation. Data are normalized to total H3 and are presented as the mean ± upper and lower limits from two […]

[1] = Figure 7 E chr12:6643945-6644023 TSS (GAPDH), Plasmid Empty Vector, Drug Conc. 5
[2] = Figure 7 E chr12:6643945-6644023 TSS (GAPDH), Plasmid Empty Vector, Drug Conc. 10
[3] = Figure 7 E chr12:6643945-6644023 TSS (GAPDH), Plasmid PRDM9WT, Drug Conc. 5
[4] = Figure 7 E chr12:6643945-6644023 TSS (GAPDH), Plasmid PRDM9WT, Drug Conc. 10
[5] = Figure 7 F chr19:8510167-8510261 TSS (HNRNPM), Plasmid Empty Vector, Drug Conc. 5
[6] = Figure 7 F chr19:8510167-8510261 TSS (HNRNPM), Plasmid Empty Vector, Drug Conc. 10
[7] = Figure 7 F chr19:8510167-8510261 TSS (HNRNPM), Plasmid PRDM9WT, Drug Conc. 5
[8] = Figure 7 F chr19:8510167-8510261 TSS (HNRNPM), Plasmid PRDM9WT, Drug Conc. 10

COc1cc(OC)cc(-c2noc(N3CCN(C)C4(CCN(c5ccccc5)CC4)C3)n2)c1 [MRK-740-NC]
2^-dCq (Plasmid PRDM9WT, Drug Conc. 5): 34.845 | dCq (IP-Input) (Plasmid PRDM9WT, Drug Conc. 5): -5.123 | 2^-dCq (Plasmid PRDM9WT, Drug Conc. 10): 50.1539 | dCq (IP-Input) (Plasmid PRDM9WT, Drug Conc. 10): -5.648 | 2^-dCq (H3K4me3 IP relative to H3 IP) [1]: 96.9166 | 2^-dCq (H3K4me3 IP relative to H3 IP) [2]: 40.6216 | 2^-dCq (H3K4me3 IP relative to H3 IP) [3]: 33.0164 | 2^-dCq (H3K4me3 IP relative to H3 IP) [4]: 25.1288 | 2^-dCq (H3K4me3 IP relative to H3 IP) [5]: 88.9762 | 2^-dCq (H3K4me3 IP relative to H3 IP) [6]: 43.9056 | 2^-dCq (H3K4me3 IP relative to H3 IP) [7]: 32.8222 | 2^-dCq (H3K4me3 IP relative to H3 IP) [8]: 26.0973 | Cq (Plasmid PRDM9WT, Drug Conc. 5): 21.4925 and 21.6408 | Cq (Plasmid PRDM9WT, Drug Conc. 10): 21.2248 and 20.9811 | 2^-dCq (H3K4me3 ChIP relative to H3 ChIP) (Figure 7 A, chr2:128811847-128811944 (Intergenic), Plasmid Empty Vector, Drug Conc. 5): 0.5813 | 2^-dCq (H3K4me3 ChIP relative to H3 ChIP) (Figure 7 A, chr2:128811847-128811944 (Intergenic), Plasmid Empty Vector, Drug Conc. 10): 0.3956 | 2^-dCq (H3K4me3 ChIP relative to H3 ChIP) (Figure 7 A, chr2:128811847-128811944 (Intergenic), Plasmid PRDM9WT, Drug Conc. 5): 2.494 | 2^-dCq (H3K4me3 ChIP relative to H3 ChIP) (Figure 7 A, chr2:128811847-128811944 (Intergenic), Plasmid PRDM9WT, Drug Conc. 10): 2.2717 | 2^-dCq (H3K4me3 ChIP relative to H3 ChIP) (Figure 7 B, chr8:49932778-49932856 (Intergenic), Plasmid Empty Vector, Drug Conc. 5): 0.3925 | 2^-dCq (H3K4me3 ChIP relative to H3 ChIP) (Figure 7 B, chr8:49932778-49932856 (Intergenic), Plasmid Empty Vector, Drug Conc. 10): 0.1726 | 2^-dCq (H3K4me3 ChIP relative to H3 ChIP) (Figure 7 B, chr8:49932778-49932856 (Intergenic), Plasmid PRDM9WT, Drug Conc. 5): 4.749 | 2^-dCq (H3K4me3 ChIP relative to H3 ChIP) (Figure 7 B, chr8:49932778-49932856 (Intergenic), Plasmid PRDM9WT, Drug Conc. 10): 4.289 | 2^-dCq (H3K4me3 ChIP relative to H3 ChIP) (Figure 7 C, chr2:40281930-40282015 Intragenic (SLC8A1-AS1), Plasmid Empty Vector, Drug Conc. 5): 0.3263 | 2^-dCq (H3K4me3 ChIP relative to H3 ChIP) (Figure 7 C, chr2:40281930-40282015 Intragenic (SLC8A1-AS1), Plasmid Empty Vector, Drug Conc. 10): 0.2399 | 2^-dCq (H3K4me3 ChIP relative to H3 ChIP) (Figure 7 C, chr2:40281930-40282015 Intragenic (SLC8A1-AS1), Plasmid PRDM9WT, Drug Conc. 5): 5.248 | 2^-dCq (H3K4me3 ChIP relative to H3 ChIP) (Figure 7 C, chr2:40281930-40282015 Intragenic (SLC8A1-AS1), Plasmid PRDM9WT, Drug Conc. 10): 4.126 | H3K4me3 levels at PRDM9-dependent intragenic and intergenic loci (ChIP-qPCR, in words) (HEK293T transfected with wild-type PRDM9, 48 h, various concentrations): negligible impact | 2^-dCq (H3K4me3 ChIP-qPCR, IP relative to H3) (Figure 7 D chr3:165514798-165514911 Intragenic (BCHE), Plasmid Empty Vector, Drug Conc. 5): 0.55 | 2^-dCq (H3K4me3 ChIP-qPCR, IP relative to H3) (Figure 7 D chr3:165514798-165514911 Intragenic (BCHE), Plasmid Empty Vector, Drug Conc. 10): 0.9804 | 2^-dCq (H3K4me3 ChIP-qPCR, IP relative to H3) (Figure 7 D chr3:165514798-165514911 Intragenic (BCHE), Plasmid PRDM9WT, Drug Conc. 5): 6.945 | 2^-dCq (H3K4me3 ChIP-qPCR, IP relative to H3) (Figure 7 D chr3:165514798-165514911 Intragenic (BCHE), Plasmid PRDM9WT, Drug Conc. 10): 8.326 | 2^-dCq (H3K4me3 ChIP-qPCR, IP relative to H3) [1]: 90.8317 | 2^-dCq (H3K4me3 ChIP-qPCR, IP relative to H3) [2]: 79.4548 | 2^-dCq (H3K4me3 ChIP-qPCR, IP relative to H3) [3]: 29.3928 | 2^-dCq (H3K4me3 ChIP-qPCR, IP relative to H3) [4]: 64.1533 | 2^-dCq (H3K4me3 ChIP-qPCR, IP relative to H3) [5]: 64.4199 | 2^-dCq (H3K4me3 ChIP-qPCR, IP relative to H3) [6]: 72.9088 | 2^-dCq (H3K4me3 ChIP-qPCR, IP relative to H3) [7]: 34.845 | 2^-dCq (H3K4me3 ChIP-qPCR, IP relative to H3) [8]: 50.1539 | H3K4me3 ChIP-qPCR 2^-dCq (IP-Input) (chr2:40281930-40282015 Intragenic (SLC8A1-AS1), Figure 7 C, Empty Vector, Drug Conc. 5): 0.5453 | H3K4me3 ChIP-qPCR 2^-dCq (IP-Input) (chr2:40281930-40282015 Intragenic (SLC8A1-AS1), Figure 7 C, Empty Vector, Drug Conc. 10): 0.744 | H3K4me3 ChIP-qPCR 2^-dCq (IP-Input) (chr2:40281930-40282015 Intragenic (SLC8A1-AS1), Figure 7 C, PRDM9WT, Drug Conc. 5): 5.233 | H3K4me3 ChIP-qPCR 2^-dCq (IP-Input) (chr2:40281930-40282015 Intragenic (SLC8A1-AS1), Figure 7 C, PRDM9WT, Drug Conc. 10): 7.127 | H3K4me3 ChIP-qPCR 2^-dCq (IP-Input) (chr2:128811847-128811944 (Intergenic), Figure 7 A, Empty Vector, Drug Conc. 5): 1.312 | H3K4me3 ChIP-qPCR 2^-dCq (IP-Input) (chr2:128811847-128811944 (Intergenic), Figure 7 A, Empty Vector, Drug Conc. 10): 1.714 | H3K4me3 ChIP-qPCR 2^-dCq (IP-Input) (chr2:128811847-128811944 (Intergenic), Figure 7 A, PRDM9WT, Drug Conc. 5): 3.31 | H3K4me3 ChIP-qPCR 2^-dCq (IP-Input) (chr2:128811847-128811944 (Intergenic), Figure 7 A, PRDM9WT, Drug Conc. 10): 4.0213 | H3K4me3 ChIP-qPCR 2^-dCq (IP-Input) (chr8:49932778-49932856 (Intergenic), Figure 7 B, Empty Vector, Drug Conc. 5): 0.869 | H3K4me3 ChIP-qPCR 2^-dCq (IP-Input) (chr8:49932778-49932856 (Intergenic), Figure 7 B, Empty Vector, Drug Conc. 10): 0.9683 | H3K4me3 ChIP-qPCR 2^-dCq (IP-Input) (chr8:49932778-49932856 (Intergenic), Figure 7 B, PRDM9WT, Drug Conc. 5): 6.096 | H3K4me3 ChIP-qPCR 2^-dCq (IP-Input) (chr8:49932778-49932856 (Intergenic), Figure 7 B, PRDM9WT, Drug Conc. 10): 6.298 | <Cq> (Plasmid PRDM9WT, Drug Conc. 5): 21.5667 | <Cq> (Plasmid PRDM9WT, Drug Conc. 10): 21.103
